According to patent publication EP0641797A1, “Cephem derivatives and antimicrobial agents containing the same” (KATAYAMA SEIYAKUSYO CO. Ltd., priority 1993, dated 1995):
In brackets after ≈: the same amount, converted by molar mass.

Tests used:
Assay in all cases: MIC on standard strains, standard method of Japan Society of Chemotherapy
Type in all cases: cell-based
[1] = test system: S. epidemidis IAM 1296
Protocol: (§1) Antimicrobial activity of the compounds of the present invention were measured using CTM (cefotiam) and FMOX (flomoxef) as control drugs in accordance with the standard method of Japan Society of Chemotherapy. Of the 25 standard strains used in this test, Staphylococcus aureus 167 and Staphylococcus aureus 195 belong to MRSA.
(§2) In these tables, drugs tested are shown by the corresponding examples in which they were synthesized.

[2] = test system: S. aureus 195; settings: Staphylococcus aureus; S. aureus 195 (MRSA)
Protocol: as §1, §2

[3] = test system: M. morganii IFO 3848; settings: Morganella morganii, IFO3848
Protocol: as §1, §2

[4] = test system: P. vulugaris OX-19
Protocol: as §1, §2

[5] = test system: K. pneuminiae IFO 3317
Protocol: as §1, §2

[6] = test system: K. pneuminiae No. 42
Protocol: as §1, §2

[7] = test system: S. aureus 209p JC-1; settings: Staphylococcus aureus, 209P, read-out: MIC
Protocol: as §1, §2

[8] = test system: S. marcescens No. 16-2; settings: Serratia marcescens, NO.162
Protocol: as §1, §2

[9] = test system: E. cloacae ATCC 13407; settings: Enterobacter cloacae, ATCC13407, E. cloacae ATCC 13407; read-out: MIC
Protocol: as §1, §2

[10] = test system: E. coli CSH2(RE45); settings: Escherichia coli
Protocol: as §1, §2

[11] = test system: S. aureus Smith; settings: Staphylococcus aureus, read-out: MIC
Protocol: as §1, §2

[12] = test system: P. cepacia; settings: Burkholderia cepacia, read-out: MIC
Protocol: as §1, §2

[13] = test system: M. luteus ATCC 9341; settings: Micrococcus luteus, ATCC9341
Protocol: as §1, §2

[14] = test system: P. aeruginosa NCTC 10490; settings: Pseudomonas aeruginosa, NCTC10490, P. aeruginosa NCTC 10490; read-out: MIC
Protocol: as §1, §2

[15] = test system: E. coli CSH2(RK1); settings: Escherichia coli
Protocol: as §1, §2

[16] = test system: C. freundii ATCC 8090; settings: Citrobacter freundii, ATCC8090, C. freundii ATCC 8090; read-out: MIC
Protocol: as §1, §2

[17] = test system: S. marcescens IAM 1184; settings: Serratia marcescens, IAM1184, S. marcescens IAM 1184; read-out: MIC
Protocol: as §1, §2

[18] = test system: A. calcoaceticos T59; settings: read-out: MIC
Protocol: as §1, §2

[19] = test system: E. cloacae Nek39; settings: Enterobacter cloacae, NEK39, E. cloacae Nek39; read-out: MIC
Protocol: as §1, §2

[20] = test system: P. aeruginosa AKR17; settings: Pseudomonas aeruginosa
Protocol: as §1, §2

[21] = test system: S. aureus 167; settings: Staphylococcus aureus; S. aureus 167 (MRSA)
Protocol: as §1, §2

[22] = test system: B. subtilis ATCC 6633; settings: Bacillus subtilis, ATCC6633, B. subtilis ATCC 6633; read-out: MIC
Protocol: as §1, §2

[23] = test system: A. faecalis ATCC 3750; settings: Alcaligenes faecalis, ATCC3750, A. faecalis ATCC 3750; read-out: MIC
Protocol: as §1, §2

[24] = test system: E. coli NHIJ JC-2; settings: Escherichia coli, NHIJJC2
Protocol: as §1, §2

[25] = test system: P. mirabilis IFO 3849; settings: Proteus mirabilis, IFO3849, P. mirabilis IFO 3849; read-out: MIC
Protocol: as §1, §2

Row | SMILES | MIC [1] | MIC [2] | MIC [3] | MIC [4] | MIC [5] | MIC [6] | MIC [7] | MIC [8] | MIC [9] | MIC [10] | MIC [11] | MIC [12] | MIC [13] | MIC [14] | MIC [15] | MIC [16] | MIC [17] | MIC [18] | MIC [19] | MIC [20] | also measured
1 | Nc1nnc(-c2cc[n+](CC3=C(C(=O)[O-])N4C(=O)[C@@H](NC(=O)/C(=N\O)c5csc(N)n5)[C@H]4SC3)cc2)o1 [Ex. 15, 7β-[2-(2-aminothiazol-4-yl)-2-syn-hydroxyiminoacetamido]-3-[4-(2-amino-1,3,4-oxadiazol-5-yl)pyridinio]methyl-3-cephem-4-carboxylate] | 0.1 µg/mL (≈ 0.184 µM) | 6.25 µg/mL (≈ 11.5 µM) | 0.1 µg/mL (≈ 0.184 µM) | 0.2 µg/mL (≈ 0.368 µM) | 0.2 µg/mL (≈ 0.368 µM) | 0.39 µg/mL (≈ 0.718 µM) | 0.39 µg/mL (≈ 0.718 µM) | 100 µg/mL (≈ 184 µM) | 6.25 µg/mL (≈ 11.5 µM) | 0.39 µg/mL (≈ 0.718 µM) | 0.39 µg/mL (≈ 0.718 µM) | > 100 µg/mL | 0.05 µg/mL (≈ 0.092 µM) | 1.56 µg/mL (≈ 2.87 µM) | 0.78 µg/mL (≈ 1.44 µM) | 0.2 µg/mL (≈ 0.368 µM) | 0.2 µg/mL (≈ 0.368 µM) | 12.5 µg/mL (≈ 23 µM) | 50 µg/mL (≈ 92 µM) | > 100 µg/mL | MIC [21]: 6.25 µg/mL (≈ 11.5 µM); MIC [22]: 0.39 µg/mL (≈ 0.718 µM); MIC [23]: 1.56 µg/mL (≈ 2.87 µM); MIC [24]: 0.2 µg/mL (≈ 0.368 µM); MIC [25]: 0.2 µg/mL (≈ 0.368 µM)
2 | Nc1nc(-c2cc[n+](CC3=C(C(=O)[O-])N4C(=O)[C@@H](NC(=O)/C(=N\O)c5csc(N)n5)[C@H]4SC3)cc2)n[nH]1 [Ex. 16, 7β-[2-(2-aminothiazol-4-yl)-2-syn-hydroxyiminoacetamido]-3-[4-(3-aminotriazol-5-yl)pyridinio]methyl-3-cephem-4-carboxylate] | 0.1 µg/mL (≈ 0.184 µM) | 1.56 µg/mL (≈ 2.88 µM) | 0.05 µg/mL (≈ 0.0922 µM) | 0.1 µg/mL (≈ 0.184 µM) | 0.1 µg/mL (≈ 0.184 µM) | 0.39 µg/mL (≈ 0.719 µM) | 0.2 µg/mL (≈ 0.369 µM) | > 100 µg/mL | 12.5 µg/mL (≈ 23 µM) | 0.2 µg/mL (≈ 0.369 µM) | 0.39 µg/mL (≈ 0.719 µM) | > 100 µg/mL | 0.025 µg/mL (≈ 0.0461 µM) | 1.56 µg/mL (≈ 2.88 µM) | 0.78 µg/mL (≈ 1.44 µM) | 0.2 µg/mL (≈ 0.369 µM) | 0.2 µg/mL (≈ 0.369 µM) | 12.5 µg/mL (≈ 23 µM) | > 100 µg/mL | > 100 µg/mL | MIC [21]: 3.13 µg/mL (≈ 5.77 µM); MIC [22]: 0.2 µg/mL (≈ 0.369 µM); MIC [23]: 1.56 µg/mL (≈ 2.88 µM); MIC [24]: 0.1 µg/mL (≈ 0.184 µM); MIC [25]: 0.2 µg/mL (≈ 0.369 µM)
3 | Nc1nc(/C(=N/O)C(=O)N[C@@H]2C(=O)N3C(C(=O)[O-])=C(C[n+]4ccc(-c5ncon5)cc4)CS[C@H]23)cs1 [Ex. 17, 7β-[2-(2-aminothiazol-4-yl)-2-syn-hydroxyiminoacetamido]-3-[4-(1,2,4-oxadiazol-3-yl)pyridinio]methyl-3-cephem-4-carboxylate] | 0.2 µg/mL (≈ 0.378 µM) | 3.13 µg/mL (≈ 5.92 µM) | 0.2 µg/mL (≈ 0.378 µM) | 0.39 µg/mL (≈ 0.738 µM) | 0.39 µg/mL (≈ 0.738 µM) | 0.78 µg/mL (≈ 1.48 µM) | 0.39 µg/mL (≈ 0.738 µM) | > 100 µg/mL | 6.25 µg/mL (≈ 11.8 µM) | 0.78 µg/mL (≈ 1.48 µM) | 0.78 µg/mL (≈ 1.48 µM) | > 100 µg/mL | 0.1 µg/mL (≈ 0.189 µM) | 3.13 µg/mL (≈ 5.92 µM) | 0.78 µg/mL (≈ 1.48 µM) | 0.39 µg/mL (≈ 0.738 µM) | 0.39 µg/mL (≈ 0.738 µM) | 12.5 µg/mL (≈ 23.7 µM) | 50 µg/mL (≈ 94.6 µM) | > 100 µg/mL | MIC [21]: 6.25 µg/mL (≈ 11.8 µM); MIC [22]: 0.39 µg/mL (≈ 0.738 µM); MIC [23]: 3.13 µg/mL (≈ 5.92 µM); MIC [24]: 0.39 µg/mL (≈ 0.738 µM); MIC [25]: 0.39 µg/mL (≈ 0.738 µM)
